In article PMC6394493 (Cancer Chemotherapy and Pharmacology, 2018):
Like-named read-outs stand apart in the source and are kept apart here.

Assay: Plasma pharmacokinetics (LC–MS/MS, non-compartmental analysis)
Format: in vivo, Japanese patients
Conditions: for AUC(0-inf) / AUC(0-t) / Cmax / Tmax: human, plasma, oral; for AUC(0-inf): read-out: AUCinf, Median; for Cmax: read-out: Cmax, Median; for Tmax: read-out: Tmax, Median
Description: The PK parameters were determined by non-compartmental analysis using Phoenix WinNonlin 6.2® (Pharsight, Mountain View, CA).

[1] = 400 mg, Cycle 1 Day 1, 400 mg bid, n = 7
[2] = 400 mg, Cycle 1 Day 1, 400 mg qd, n = 3
[3] = 400 mg, Cycle 1 Day 8, 400 mg bid, n = 6
[4] = 400 mg, Cycle 1 Day 8, 400 mg qd, n = 3
[5] = 400 mg, Cycle 1 Day 28, 400 mg bid, n = 4
[6] = 400 mg, Cycle 1 Day 28, 400 mg qd, n = 3
[7] = 800 mg, Cycle 1 Day 1, 800 mg qd, n = 3
[8] = 800 mg, Cycle 1 Day 8, 800 mg qd, n = 3
[9] = 800 mg, Cycle 1 Day 28, 800 mg qd, n = 3
[10] = 1000 mg, Cycle 1 Day 1, 1000 mg qd, n = 6

Cn1c(=O)n(-c2ccc(C(C)(C)C#N)cc2)c2c3cc(-c4cnc5ccccc5c4)ccc3ncc21 [BEZ235]
dose dependence of Cmax and AUC (400 to 1400 mg qd): appeared to increase in a dose-dependent manner | inter-individual variability, coefficient of variation on the AUC and Cmax (at most of the visits and doses): greater than 100% | AUC(0-inf) (400 mg, Cycle 1 Day 1, 400 mg bid, n = 2): 2000 ng·h/mL | AUC(0-t) (400 mg, Cycle 1 Day 1, 400 mg bid, n = 4, read-out: AUC0 − 24, Median): 1760 ng·h/mL | AUC(0-t) (400 mg, Cycle 1 Day 1, 400 mg bid, n = 7, read-out: AUClast, Median): 2280 ng·h/mL | Cmax [1]: 301 ng/mL | Tmax [1]: 6 h | AUC(0-inf) (400 mg, Cycle 1 Day 1, 400 mg qd, n = 2): 978 ng·h/mL | AUC(0-t) (400 mg, Cycle 1 Day 1, 400 mg qd, n = 3, read-out: AUC0 − 24, Median): 1040 ng·h/mL | AUC(0-t) (400 mg, Cycle 1 Day 1, 400 mg qd, n = 3, read-out: AUClast, Median): 1040 ng·h/mL | Cmax [2]: 135 ng/mL | Tmax [2]: 4 h | AUC(0-inf) (400 mg, Cycle 1 Day 8, 400 mg bid, n = 1): 2790 ng·h/mL | AUC(0-t) (400 mg, Cycle 1 Day 8, 400 mg bid, n = 5, read-out: AUC0 − 24, Median): 10700 ng·h/mL | AUC(0-t) (400 mg, Cycle 1 Day 8, 400 mg bid, n = 6, read-out: AUClast, Median): 9700 ng·h/mL | Cmax [3]: 1050 ng/mL | Tmax [3]: 4 h | AUC(0-inf) (400 mg, Cycle 1 Day 8, 400 mg qd, n = 2): 14300 ng·h/mL | AUC(0-t) (400 mg, Cycle 1 Day 8, 400 mg qd, n = 3, read-out: AUC0 − 24, Median): 7350 ng·h/mL | AUC(0-t) (400 mg, Cycle 1 Day 8, 400 mg qd, n = 3, read-out: AUClast, Median): 7350 ng·h/mL | Cmax [4]: 754 ng/mL | Tmax [4]: 4 h | AUC(0-inf) (400 mg, Cycle 1 Day 28, 400 mg bid, n = 1): 2660 ng·h/mL | AUC(0-t) (400 mg, Cycle 1 Day 28, 400 mg bid, n = 3, read-out: AUC0 − 24, Median): 29400 ng·h/mL | AUC(0-t) (400 mg, Cycle 1 Day 28, 400 mg bid, n = 4, read-out: AUClast, Median): 34100 ng·h/mL | Cmax [5]: 3650 ng/mL | Tmax [5]: 4 h | AUC(0-t) (400 mg, Cycle 1 Day 28, 400 mg qd, n = 3, read-out: AUC0 − 24, Median): 8920 ng·h/mL | AUC(0-inf) [6]: 10200 ng·h/mL | AUC(0-t) (400 mg, Cycle 1 Day 28, 400 mg qd, n = 3, read-out: AUClast, Median): 8920 ng·h/mL | Cmax [6]: 795 ng/mL | Tmax [6]: 4 h | AUC(0-inf) (800 mg, Cycle 1 Day 1, 800 mg qd, n = 1): 1490 ng·h/mL | AUC(0-t) (800 mg, Cycle 1 Day 1, 800 mg qd, n = 3, read-out: AUC0 − 24, Median): 2560 ng·h/mL | AUC(0-t) (800 mg, Cycle 1 Day 1, 800 mg qd, n = 3, read-out: AUClast, Median): 2560 ng·h/mL | Cmax [7]: 154 ng/mL | Tmax [7]: 8 h | AUC(0-inf) (800 mg, Cycle 1 Day 8, 800 mg qd, n = 1): 19900 ng·h/mL | AUC(0-t) (800 mg, Cycle 1 Day 8, 800 mg qd, n = 3, read-out: AUC0 − 24, Median): 17300 ng·h/mL | AUC(0-t) (800 mg, Cycle 1 Day 8, 800 mg qd, n = 3, read-out: AUClast, Median): 17300 ng·h/mL | Cmax [8]: 1170 ng/mL | Tmax [8]: 6 h | AUC(0-inf) (800 mg, Cycle 1 Day 28, 800 mg qd, n = 2): 13500 ng·h/mL | AUC(0-t) (800 mg, Cycle 1 Day 28, 800 mg qd, n = 3, read-out: AUC0 − 24, Median): 25000 ng·h/mL | AUC(0-t) (800 mg, Cycle 1 Day 28, 800 mg qd, n = 3, read-out: AUClast, Median): 24900 ng·h/mL | Cmax [9]: 1980 ng/mL | Tmax [9]: 2 h | AUC(0-inf) (1000 mg, Cycle 1 Day 1, 1000 mg qd, n = 3): 1410 ng·h/mL | AUC(0-t) (1000 mg, Cycle 1 Day 1, 1000 mg qd, n = 4, read-out: AUC0 − 24, Median): 4330 ng·h/mL | AUC(0-t) (1000 mg, Cycle 1 Day 1, 1000 mg qd, n = 6, read-out: AUClast, Median): 4490 ng·h/mL | Cmax [10]: 472 ng/mL | Tmax [10]: 5 h
